# The NIST ThermoML archive (doi:10.1021/je900298e)
# ± gives the expanded uncertainty stated by the source.
# Conditions: 101.33 kPa, Liquid
compound,measurement,setting,value
CCCC[N+]1(C)CCCC1.O=S(=O)([N-]S(=O)(=O)C(F)(F)F)C(F)(F)F,mass density,289 K,1404.3 ± 1.6 kg/m3
same,mass density,291 K,1402.6 ± 1.5 kg/m3
same,mass density,293 K,1401 ± 1.5 kg/m3
same,mass density,295 K,1399.4 ± 1.5 kg/m3
same,mass density,297.05 K,1397.8 ± 1.5 kg/m3
same,mass density,299.05 K,1396.2 ± 1.5 kg/m3
same,mass density,301.05 K,1394.6 ± 1.5 kg/m3
same,mass density,303.1 K,1393.1 ± 1.5 kg/m3
same,mass density,305.1 K,1391.5 ± 1.5 kg/m3
same,mass density,307.1 K,1390 ± 1.5 kg/m3
same,mass density,309.1 K,1388.5 ± 1.5 kg/m3
